Reference: patent US20240237643A1, “COMPOSITIONS WITH VIRUCIDAL AND/OR ANTIVIRAL ACTIVITY” (priority 2020, published 2024)

Key:
Format in all cases: cell-based
[1] = test system: Human respiratory syncytial virus (HRSV); test: Virucidal activity, quantitative suspension test DIN EN 14476
Coronavirus (MHV-3) = test: as above
Procedure: (§1) Testing was conducted over a period of 1 to 10 minutes. Activity against the following viruses was determined: • Coronavirus (MHV-3) • Influenza virus (H1N1) • Herpes simplex virus (HV) • Human respiratory syncytial virus (HRSV)
(§2) In this context (+) means that more than 99.99% of all viruses were inactivated; this is equivalent to a reduction factor of 10,000.

[2] = test system: all virus types (MHV-3, H1N1, HV, HRSV); test: Virucidal activity DIN EN 14476, summary over all virus types; details: concentration of 0.1 wt.-percent
Procedure: as §1, §2

Influenza virus (H1N1) = test: Virucidal activity, quantitative suspension test DIN EN 14476
[3] = test system: Herpes simplex virus (HV); test: as above
[4] = 0.1 wt.-percent in water, 1 min
[5] = 0.1 wt.-percent in water, 10 min
[6] = 10 wt.-percent in water, 10 min

CC(C)=CCCC(C)=CCCC(C)=CCO [3,7,11-trimethyl-2,6,10-dodecantrien-1-ol]
Virucidal activity HRSV [1, 4]: (+) ((+) means that more than 99.99% of all viruses were inactivated; this is equivalent to a reduction factor of 10,000)
Virucidal activity HRSV [1, 5]: (+) ((+) means that more than 99.99% of all viruses were inactivated; this is equivalent to a reduction factor of 10,000)
Virucidal activity HRSV ([1]; 1 wt.-percent in water, 1 min): (+) ((+) means that more than 99.99% of all viruses were inactivated; this is equivalent to a reduction factor of 10,000)
Virucidal activity HRSV ([1]; 1 wt.-percent in water, 10 min): (+) ((+) means that more than 99.99% of all viruses were inactivated; this is equivalent to a reduction factor of 10,000)
Virucidal activity HRSV ([1]; 10 wt.-percent in water, 1 min): (+) ((+) means that more than 99.99% of all viruses were inactivated; this is equivalent to a reduction factor of 10,000)
Virucidal activity HRSV [1, 6]: (+) ((+) means that more than 99.99% of all viruses were inactivated; this is equivalent to a reduction factor of 10,000)
Virucidal activity MHV-3 (Coronavirus (MHV-3); [4]): (+) ((+) means that more than 99.99% of all viruses were inactivated; this is equivalent to a reduction factor of 10,000)
Virucidal activity MHV-3 (Coronavirus (MHV-3); [5]): (+) ((+) means that more than 99.99% of all viruses were inactivated; this is equivalent to a reduction factor of 10,000)
Virucidal activity MHV-3 (Coronavirus (MHV-3); 1 wt.-percent in water, 1 min): (+) ((+) means that more than 99.99% of all viruses were inactivated; this is equivalent to a reduction factor of 10,000)
Virucidal activity MHV-3 (Coronavirus (MHV-3); 1 wt.-percent in water, 10 min): (+) ((+) means that more than 99.99% of all viruses were inactivated; this is equivalent to a reduction factor of 10,000)
Virucidal activity MHV-3 (Coronavirus (MHV-3); 10 wt.-percent in water, 1 min): (+) ((+) means that more than 99.99% of all viruses were inactivated; this is equivalent to a reduction factor of 10,000)
Virucidal activity MHV-3 (Coronavirus (MHV-3); [6]): (+) ((+) means that more than 99.99% of all viruses were inactivated; this is equivalent to a reduction factor of 10,000)
reduction factor [2]: 10,000
Virucidal activity H1N1 (Influenza virus (H1N1); [4]): (+) ((+) means that more than 99.99% of all viruses were inactivated; this is equivalent to a reduction factor of 10,000)
Virucidal activity H1N1 (Influenza virus (H1N1); [5]): (+) ((+) means that more than 99.99% of all viruses were inactivated; this is equivalent to a reduction factor of 10,000)
Virucidal activity H1N1 (Influenza virus (H1N1); 1 wt.-percent in water, 1 min): (+) ((+) means that more than 99.99% of all viruses were inactivated; this is equivalent to a reduction factor of 10,000)
Virucidal activity H1N1 (Influenza virus (H1N1); 1 wt.-percent in water, 10 min): (+) ((+) means that more than 99.99% of all viruses were inactivated; this is equivalent to a reduction factor of 10,000)
Virucidal activity H1N1 (Influenza virus (H1N1); 10 wt.-percent in water, 1 min): (+) ((+) means that more than 99.99% of all viruses were inactivated; this is equivalent to a reduction factor of 10,000)
Virucidal activity H1N1 (Influenza virus (H1N1); [6]): (+) ((+) means that more than 99.99% of all viruses were inactivated; this is equivalent to a reduction factor of 10,000)
Virucidal activity HV [3, 4]: (+) ((+) means that more than 99.99% of all viruses were inactivated; this is equivalent to a reduction factor of 10,000)
Virucidal activity HV [3, 5]: (+) ((+) means that more than 99.99% of all viruses were inactivated; this is equivalent to a reduction factor of 10,000)
Virucidal activity HV ([3]; 1 wt.-percent in water, 1 min): (+) ((+) means that more than 99.99% of all viruses were inactivated; this is equivalent to a reduction factor of 10,000)
Virucidal activity HV ([3]; 1 wt.-percent in water, 10 min): (+) ((+) means that more than 99.99% of all viruses were inactivated; this is equivalent to a reduction factor of 10,000)
Virucidal activity HV ([3]; 10 wt.-percent in water, 1 min): (+) ((+) means that more than 99.99% of all viruses were inactivated; this is equivalent to a reduction factor of 10,000)
Virucidal activity HV [3, 6]: (+) ((+) means that more than 99.99% of all viruses were inactivated; this is equivalent to a reduction factor of 10,000)
